{"source": "patent US20120134946A1", "about": "“COMPOSITION HAVING ANTIOXIDANT AND WHITENING EFFECTS CONTAINING A CONCENTRATE OF KOREAN RICE WINE” (AMOREPACIFIC CORPORATION, priority 2009, published 2012)", "key": {"[1]": {"assay": "Antioxidant effect (DPPH test)", "format": "biochemical", "settings": "100 μM DPPH, 37° C., 30 minutes, absorbance at 540 nm", "description": "The antioxidant effect was determined as the concentration at which absorbance is decreased to 50% of control (IC50). 100 μM DPPH solution (in ethanol, 190 μL) was mixed with the concentrated makgeolli prepared in Example 1 or control (10 μL each). The resulting mixture was kept at 37° C. for 30 minutes and absorbance was measured at 540 nm. Trolox, which is widely used as synthetic antioxidant, was used as the control."}, "[2]": {"system": "Human keratinocyte HaCaT cell line", "assay": "ROS production inhibiting effect using fluorescent substances (DCFH-DA, UVB)", "format": "cell-based", "settings": "light or radiation study, HaCaT cells, UVB 30 mJ/cm^2, DCF fluorescence, read-out: ROS production inhibiting effect (% of control)", "description": "Human keratinocyte HaCaT cell line was used. The cells were seeded on a 96-well black plate for fluorescence measurement, with 2.0×10^4 cells per well, cultured under the condition of 37° C. and 5% CO2 for 1 day using Dulbecco's modified Eagle's medium (DMEM, FBS 10%) containing penicillin/streptomycin, and then treated with the test sample. The cells were cultured under the condition of 37°C. and 5% CO2 for 1 day using serum (FBS)-free DMEM containing penicillin/streptomycin treated with the test sample as described in Table 2. After culturing for 24 hours, after washing with HEPES-buffered control salt solution (HCSS) to remove the remaining medium and adding 20 μM 2′,7′-dichlorodihydro-fluorescein diacetate (DCFH-DA, Molecular Probes, Inc., 100 μL), the cells were cultured under the condition of 37° C. and 5% CO2 for 20 minutes and then washed with HCSS. Then, after adding HCSS (100 μL) treated with the samples of different concentrations, the fluorescence intensity of the ROS, oxidized dichlorofluorescein (DCF), was measured using a fluorescence plate reader (Ex=485 nm, Em=530 nm). Then, after immediately and 3 hours after irradiation of UVB (30 mJ/cm^2), fluorescence intensity was measured using the fluorescence plate reader (Ex=485 nm, Em=530 nm). Trolox was used as control."}, "[3]": {"system": "Mouse melanocytes (Mel-Ab cells)", "assay": "Melanin production inhibiting effect using mouse melanocytes", "format": "cell-based", "settings": "10 ppm, 3 consecutive days, absorbance at 400 nm", "description": "Mouse melanocytes (Mel-Ab cells) derived from C57BL/6 mouse (Dooley, T. P. et al, Skin Pharmacol., 7, pp. 188-200) were cultured under the condition of 37° C. and 5% CO2 in DMEM containing 10% FBS, 100 nM 2-O-tetradecanoyphorbol-13-acetate and 1 nM cholera toxin. The cultured Mel-Ab cells were detached with 0.25% trypsin-EDTA and cultured in a 24-well plate, with 10^5 cells/well. From day 2, hydroquinone or the concentrated makgeolli of Example 1 (10 ppm each) was added for 3 consecutive days as test sample. Hydroquinone was used as positive control. Subsequently, after removing the medium and washing with PBS, the cells were suspended in 1 N sodium hydroxide and absorbance was measured at 400 nm. Based on the measurement result, melanin production inhibiting effect was calculated according to Equation 1.\nMelanin production inhibiting effect (%)=100−(Absorbance of test sample/Absorbance of control×100) Equation 1"}, "[4]": {"system": "human skin", "assay": "Whitening effect for human skin (UVB-induced tanning)", "format": "in vivo", "settings": "1% topical on UVB-tanned upper arm, 10 weeks, 12 healthy men, colorimeter", "description": "The whitening effect of the concentrated makgeolli of Example 1 for human skin was tested as follows.\n12 healthy men were used as test subjects. An opaque tape with a hole of 1.5 cm diameter was attached on the upper arm of the test subject and UVB of about 1.5-2 times the minimal erythemal dose was irradiated to induce tanning.\nAfter the UV radiation, 1% concentrated makgeolli of Example 1 (in 7:3 1,3-butylene glycol:ethanol solvent), 1% hydroquinone or 1% solvent (vehicle, negative control) was applied. […] The skin color was measured every week using the colorimeter CR2002 (Minolta, Japan).\nThe difference in skin color (ΔL*) at the initiation of application and after the completion of test was calculated according to Equation 2. Whitening effect was determined from the ΔL* of the sample-applied portion and the control portion. A ΔL* value of about 2 can be evaluated as distinct whitening effect and one of about 1.5 can be evaluated as positive whitening effect.\nΔL*=L*after the completion of test−L*at the initiation of application Equation 2"}}, "data": [{"smiles": "Cc1c(C)c2c(c(C)c1O)CCC(C)(C(=O)O)O2", "note": "(stereo not shown) [Trolox]", "values": [{"measurement": "IC50 (concentration at which absorbance is decreased to 50% of control)", "setting": "[1]", "result": 8.64, "unit": "ppm"}, {"measurement": "activity at 1 ppm", "setting": "[2]; 1 ppm", "result": 76.9, "unit": "%"}, {"measurement": "activity at 10 ppm", "setting": "[2]; 10 ppm", "result": 74.6, "unit": "%"}, {"measurement": "activity at 25 ppm", "setting": "[2]; 25 ppm", "result": 73.3, "unit": "%"}, {"measurement": "activity at 50 ppm", "setting": "[2]; 50 ppm", "result": 58.5, "unit": "%"}]}, {"smiles": "Oc1ccc(O)cc1", "note": "[Hydroquinone]", "values": [{"measurement": "Melanin production inhibiting effect (%)", "setting": "[3]", "result": 41.1, "unit": "%"}, {"measurement": "Change in skin color (ΔL*)", "setting": "[4]", "result": "1.90 ± 0.11"}]}]}
